# Results: ChEMBL document CHEMBL1201862, “PubChem BioAssay data set” (2004)
# Active and inactive are the calls of the source.
# How the values were obtained:
# Protein Tat = target: T1, Protein Tat (Human immunodeficiency virus type 1 group M subtype B (isolate HXB2)(HIV-1), UniProt P04608); type: functional;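 further: tat binding to TAR RNA read out by fluorescence polarization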
# T1 sequence (P04608 whole entry): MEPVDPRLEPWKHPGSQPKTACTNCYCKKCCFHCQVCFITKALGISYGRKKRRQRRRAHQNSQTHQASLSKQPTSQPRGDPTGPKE
# [1] = target: Peroxisome proliferator-activated receptor gamma/Nuclear receptor coactivator 1 (Homo sapiens, UniProt P37231); type: functional;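 further: agonist potency as compounds enhance coactivator SRC-1 recruitment to PPARgamma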
# [2] = target: Peroxisome proliferator-activated receptor gamma/Nuclear receptor coactivator 3 (Homo sapiens, UniProt P37231); type: functional;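 further: agonist potency for raising coactivator recruitment to the receptor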
# Chain of Peroxisome proliferator-activated receptor gamma/Nuclear receptor coactivator 3 (P37231 whole entry): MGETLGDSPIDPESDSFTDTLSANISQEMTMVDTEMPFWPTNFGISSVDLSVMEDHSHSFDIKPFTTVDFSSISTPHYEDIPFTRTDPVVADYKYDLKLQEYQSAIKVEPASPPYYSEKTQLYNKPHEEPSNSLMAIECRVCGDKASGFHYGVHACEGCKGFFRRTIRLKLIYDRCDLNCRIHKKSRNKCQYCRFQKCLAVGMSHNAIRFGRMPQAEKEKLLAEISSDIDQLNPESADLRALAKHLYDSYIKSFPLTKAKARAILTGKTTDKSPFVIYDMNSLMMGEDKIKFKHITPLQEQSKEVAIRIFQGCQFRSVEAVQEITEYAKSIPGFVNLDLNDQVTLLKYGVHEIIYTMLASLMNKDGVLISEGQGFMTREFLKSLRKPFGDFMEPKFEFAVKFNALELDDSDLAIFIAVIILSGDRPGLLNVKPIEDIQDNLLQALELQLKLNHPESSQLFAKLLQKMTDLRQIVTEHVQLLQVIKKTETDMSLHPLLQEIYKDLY
# Chain of Peroxisome proliferator-activated receptor gamma/Nuclear receptor coactivator 3 (Q9Y6Q9 whole entry, further chain): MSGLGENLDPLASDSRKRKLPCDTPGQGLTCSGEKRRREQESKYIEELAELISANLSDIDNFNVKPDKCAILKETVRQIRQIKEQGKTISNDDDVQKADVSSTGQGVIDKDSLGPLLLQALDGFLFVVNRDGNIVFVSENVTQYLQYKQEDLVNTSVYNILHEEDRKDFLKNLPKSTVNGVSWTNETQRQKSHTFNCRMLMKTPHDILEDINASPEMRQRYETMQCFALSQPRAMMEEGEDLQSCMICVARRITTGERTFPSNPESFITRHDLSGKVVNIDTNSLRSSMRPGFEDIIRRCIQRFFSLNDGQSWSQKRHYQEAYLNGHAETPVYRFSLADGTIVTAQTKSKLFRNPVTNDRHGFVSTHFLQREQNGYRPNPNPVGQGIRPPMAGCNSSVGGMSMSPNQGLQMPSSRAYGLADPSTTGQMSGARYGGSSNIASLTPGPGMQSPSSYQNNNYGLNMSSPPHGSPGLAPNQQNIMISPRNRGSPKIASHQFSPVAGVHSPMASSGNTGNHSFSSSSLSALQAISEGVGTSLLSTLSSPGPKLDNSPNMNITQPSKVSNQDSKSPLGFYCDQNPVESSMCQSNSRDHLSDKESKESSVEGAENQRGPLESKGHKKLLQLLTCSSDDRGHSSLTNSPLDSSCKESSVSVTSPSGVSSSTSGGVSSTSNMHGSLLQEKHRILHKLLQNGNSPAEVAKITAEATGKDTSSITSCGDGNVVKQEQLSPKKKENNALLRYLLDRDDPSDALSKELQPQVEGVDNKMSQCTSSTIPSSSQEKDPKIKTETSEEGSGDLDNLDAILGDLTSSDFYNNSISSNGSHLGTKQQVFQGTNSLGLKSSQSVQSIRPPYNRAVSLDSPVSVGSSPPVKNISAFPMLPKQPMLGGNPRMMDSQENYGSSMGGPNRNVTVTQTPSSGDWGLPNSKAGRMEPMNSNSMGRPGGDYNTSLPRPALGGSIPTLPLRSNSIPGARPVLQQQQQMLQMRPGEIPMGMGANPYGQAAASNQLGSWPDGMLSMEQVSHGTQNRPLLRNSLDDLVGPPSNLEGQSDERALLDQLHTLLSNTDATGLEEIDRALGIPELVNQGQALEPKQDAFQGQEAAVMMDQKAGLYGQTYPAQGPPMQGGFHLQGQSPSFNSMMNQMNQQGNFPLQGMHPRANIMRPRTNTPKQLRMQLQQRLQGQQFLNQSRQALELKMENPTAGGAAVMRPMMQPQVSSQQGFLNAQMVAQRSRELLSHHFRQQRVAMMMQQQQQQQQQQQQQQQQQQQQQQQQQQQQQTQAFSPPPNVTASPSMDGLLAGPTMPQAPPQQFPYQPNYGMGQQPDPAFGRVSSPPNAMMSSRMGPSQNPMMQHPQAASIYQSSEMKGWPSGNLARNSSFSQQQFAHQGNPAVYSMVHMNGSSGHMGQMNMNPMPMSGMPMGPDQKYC
# [3] = target: Peroxisome proliferator-activated receptor gamma/Nuclear receptor coactivator 2 (Homo sapiens, UniProt P37231); type: functional;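 further: agonist potency for raising coactivator recruitment to the receptor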
# Chain of Peroxisome proliferator-activated receptor gamma/Nuclear receptor coactivator 2 (P37231 whole entry): as the sequence (P37231 whole entry) above
# Chain of Peroxisome proliferator-activated receptor gamma/Nuclear receptor coactivator 2 (Q15596 whole entry, further chain): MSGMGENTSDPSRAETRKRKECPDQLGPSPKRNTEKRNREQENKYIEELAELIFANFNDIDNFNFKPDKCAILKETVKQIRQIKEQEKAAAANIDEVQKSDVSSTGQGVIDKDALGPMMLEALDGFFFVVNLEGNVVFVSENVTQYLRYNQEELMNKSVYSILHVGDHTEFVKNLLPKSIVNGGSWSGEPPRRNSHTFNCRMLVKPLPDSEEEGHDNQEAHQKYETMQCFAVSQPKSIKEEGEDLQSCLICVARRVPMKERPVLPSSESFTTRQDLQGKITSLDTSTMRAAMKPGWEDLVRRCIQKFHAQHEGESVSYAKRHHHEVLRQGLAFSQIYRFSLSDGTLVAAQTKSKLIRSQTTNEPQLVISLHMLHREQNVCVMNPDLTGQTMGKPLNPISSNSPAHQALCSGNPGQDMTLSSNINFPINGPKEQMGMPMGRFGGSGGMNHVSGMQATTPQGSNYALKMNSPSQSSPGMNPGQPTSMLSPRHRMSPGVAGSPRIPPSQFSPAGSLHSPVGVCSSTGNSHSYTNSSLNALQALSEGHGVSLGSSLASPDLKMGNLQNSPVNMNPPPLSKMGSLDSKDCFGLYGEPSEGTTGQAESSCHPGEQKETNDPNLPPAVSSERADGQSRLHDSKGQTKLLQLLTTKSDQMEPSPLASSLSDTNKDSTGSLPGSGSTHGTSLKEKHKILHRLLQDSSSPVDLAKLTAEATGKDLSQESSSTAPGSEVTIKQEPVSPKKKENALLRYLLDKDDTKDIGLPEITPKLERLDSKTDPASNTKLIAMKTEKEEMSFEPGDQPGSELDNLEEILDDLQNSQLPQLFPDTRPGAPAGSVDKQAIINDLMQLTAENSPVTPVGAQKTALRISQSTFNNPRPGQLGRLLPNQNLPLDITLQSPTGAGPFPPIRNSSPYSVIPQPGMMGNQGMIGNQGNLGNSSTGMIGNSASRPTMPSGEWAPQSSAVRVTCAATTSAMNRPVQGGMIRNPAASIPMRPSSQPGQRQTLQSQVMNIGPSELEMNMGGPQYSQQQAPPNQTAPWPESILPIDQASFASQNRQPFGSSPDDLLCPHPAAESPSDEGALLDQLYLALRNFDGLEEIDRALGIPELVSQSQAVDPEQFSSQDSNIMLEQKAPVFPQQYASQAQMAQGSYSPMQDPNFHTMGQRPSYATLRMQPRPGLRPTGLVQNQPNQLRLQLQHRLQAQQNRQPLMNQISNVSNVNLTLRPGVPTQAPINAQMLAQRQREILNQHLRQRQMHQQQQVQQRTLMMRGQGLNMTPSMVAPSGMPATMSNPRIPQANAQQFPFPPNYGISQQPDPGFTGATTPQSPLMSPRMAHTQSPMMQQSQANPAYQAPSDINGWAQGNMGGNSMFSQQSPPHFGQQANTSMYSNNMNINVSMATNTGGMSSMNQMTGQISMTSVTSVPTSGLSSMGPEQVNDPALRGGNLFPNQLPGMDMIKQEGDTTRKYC
# [4] = target: Eukaryotic translation initiation factor 4E (Mus musculus, UniProt P63073); experiment: blockers of eIF4G binding by eIF4E – biochemical, TR-FRET, dose response (AID 855); type: functional;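 further: potency for disrupting eIF4E binding to eIF4GI seen as loss of FRET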
# BJ [5] = experiment: BJ-TERT-LT-ST fibroblast viability loss – cell-based, RAS-independent, luminescence, dose response (AID 1935); type: functional; conditions: Homo sapiens;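 further: BJ fibroblasts immortalized with TERT plus LT and ST oncogenes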
# BJ [6] = experiment: cells; type: functional, cell-based; conditions: Homo sapiens
# [7] = reduction of Shn3 3'UTR-driven luciferase in osteoblasts – cell-based, Clone20 osteoblasts, firefly luciferase, cherry-picked, dose response (AID 624132); type: functional;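 further: firefly luciferase luminescence from reporter carrying the Shn3 3'UTR in osteoblasts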
# [8] = DRD fibroblast viability loss – cell-based, non-viral oncogenic, luminescence, dose response (AID 1934); type: functional; conditions: Homo sapiens
# [9] = non-specific 3'UTR reporter inhibition in Clone20-Shn3RL – cell-based, Renilla luciferase, cherry-picked, counter-screen for Shn3 inhibitor project, dose response (AID 624133); type: functional
# [10] = loss of viability in HepG2 cells – cell-based, CellTiter-Glo, cherry-picked, cytotoxicity control for Shn3 inhibitor project, dose response (AID 624134); type: functional
# BJ [11] = experiment: BJ-TERT fibroblast viability loss – cell-based, RAS-independent, luminescence, dose response (AID 1933); type: functional; conditions: Homo sapiens
# [12] = target: Disintegrin and metalloproteinase domain-containing protein 17 (Homo sapiens, UniProt P78536); experiment: exosite inhibitors of ADAM17, dose response, biochemical (AID 743260)
# Chain of Disintegrin and metalloproteinase domain-containing protein 17 (P78536 whole entry, the tested form may be a part): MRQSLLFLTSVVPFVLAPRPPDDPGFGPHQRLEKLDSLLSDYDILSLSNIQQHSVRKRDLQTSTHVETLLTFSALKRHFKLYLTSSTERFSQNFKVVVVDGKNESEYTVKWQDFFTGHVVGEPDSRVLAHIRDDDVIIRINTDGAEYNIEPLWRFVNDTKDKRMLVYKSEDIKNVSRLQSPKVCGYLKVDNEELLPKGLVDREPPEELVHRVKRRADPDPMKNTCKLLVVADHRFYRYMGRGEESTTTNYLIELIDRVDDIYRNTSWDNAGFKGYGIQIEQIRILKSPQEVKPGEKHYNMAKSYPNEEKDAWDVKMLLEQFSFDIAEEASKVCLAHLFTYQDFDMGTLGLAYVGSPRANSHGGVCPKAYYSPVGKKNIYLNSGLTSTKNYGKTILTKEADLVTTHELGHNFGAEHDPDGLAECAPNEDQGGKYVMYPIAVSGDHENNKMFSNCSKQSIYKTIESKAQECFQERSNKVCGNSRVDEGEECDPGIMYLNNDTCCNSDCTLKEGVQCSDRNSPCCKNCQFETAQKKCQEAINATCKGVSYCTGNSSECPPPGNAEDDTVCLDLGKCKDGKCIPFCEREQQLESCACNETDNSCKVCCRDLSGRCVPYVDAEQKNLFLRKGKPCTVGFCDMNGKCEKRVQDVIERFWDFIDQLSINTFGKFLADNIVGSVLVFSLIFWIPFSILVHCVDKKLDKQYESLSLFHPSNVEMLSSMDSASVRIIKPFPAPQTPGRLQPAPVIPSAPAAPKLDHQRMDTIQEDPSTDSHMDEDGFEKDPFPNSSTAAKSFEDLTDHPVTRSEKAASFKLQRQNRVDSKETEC
# [13] = target: T2, Replicative DNA helicase DnaB (Mycobacterium tuberculosis, UniProt P9WMR3); experiment: DnaB intein splicing inhibitors, dose response, biochemical, cell-free fluorescence (AID 449749); type: functional
# T2 sequence (P9WMR3 whole entry): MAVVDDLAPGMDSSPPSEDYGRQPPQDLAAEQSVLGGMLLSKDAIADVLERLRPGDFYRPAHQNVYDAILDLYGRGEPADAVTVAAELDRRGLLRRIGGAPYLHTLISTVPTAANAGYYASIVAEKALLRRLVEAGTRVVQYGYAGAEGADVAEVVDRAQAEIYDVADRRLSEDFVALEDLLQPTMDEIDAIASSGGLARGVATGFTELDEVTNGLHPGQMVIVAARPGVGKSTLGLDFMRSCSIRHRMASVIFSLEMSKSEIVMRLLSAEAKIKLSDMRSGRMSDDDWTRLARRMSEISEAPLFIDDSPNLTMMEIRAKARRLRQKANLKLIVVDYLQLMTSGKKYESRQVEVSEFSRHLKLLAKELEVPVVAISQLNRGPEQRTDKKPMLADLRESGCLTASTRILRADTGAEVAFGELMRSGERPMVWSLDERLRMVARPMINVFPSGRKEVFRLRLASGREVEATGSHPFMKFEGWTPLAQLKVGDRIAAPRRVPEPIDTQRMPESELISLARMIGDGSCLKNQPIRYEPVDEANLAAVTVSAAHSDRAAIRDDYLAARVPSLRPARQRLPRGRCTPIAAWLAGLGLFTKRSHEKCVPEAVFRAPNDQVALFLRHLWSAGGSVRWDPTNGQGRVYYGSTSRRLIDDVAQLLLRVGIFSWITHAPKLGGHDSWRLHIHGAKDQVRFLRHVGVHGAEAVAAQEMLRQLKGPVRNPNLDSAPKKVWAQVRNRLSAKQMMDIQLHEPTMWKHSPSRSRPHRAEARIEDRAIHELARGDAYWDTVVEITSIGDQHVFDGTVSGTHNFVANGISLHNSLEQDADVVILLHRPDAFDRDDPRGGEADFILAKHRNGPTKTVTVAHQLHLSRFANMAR
# Protein RecA = target: T3, Protein RecA (Mycobacterium tuberculosis, UniProt P9WHJ3); experiment: Fluorescence Cell-Free Homogeneous Dose Retest to Identify Inhibitors of RecA-Intein Splicing Activity. [Related pubchem assays (depositor defined):AID2097, AID2223, AID489010, AID492950]; type: functional
# T3 sequence (P9WHJ3 whole entry): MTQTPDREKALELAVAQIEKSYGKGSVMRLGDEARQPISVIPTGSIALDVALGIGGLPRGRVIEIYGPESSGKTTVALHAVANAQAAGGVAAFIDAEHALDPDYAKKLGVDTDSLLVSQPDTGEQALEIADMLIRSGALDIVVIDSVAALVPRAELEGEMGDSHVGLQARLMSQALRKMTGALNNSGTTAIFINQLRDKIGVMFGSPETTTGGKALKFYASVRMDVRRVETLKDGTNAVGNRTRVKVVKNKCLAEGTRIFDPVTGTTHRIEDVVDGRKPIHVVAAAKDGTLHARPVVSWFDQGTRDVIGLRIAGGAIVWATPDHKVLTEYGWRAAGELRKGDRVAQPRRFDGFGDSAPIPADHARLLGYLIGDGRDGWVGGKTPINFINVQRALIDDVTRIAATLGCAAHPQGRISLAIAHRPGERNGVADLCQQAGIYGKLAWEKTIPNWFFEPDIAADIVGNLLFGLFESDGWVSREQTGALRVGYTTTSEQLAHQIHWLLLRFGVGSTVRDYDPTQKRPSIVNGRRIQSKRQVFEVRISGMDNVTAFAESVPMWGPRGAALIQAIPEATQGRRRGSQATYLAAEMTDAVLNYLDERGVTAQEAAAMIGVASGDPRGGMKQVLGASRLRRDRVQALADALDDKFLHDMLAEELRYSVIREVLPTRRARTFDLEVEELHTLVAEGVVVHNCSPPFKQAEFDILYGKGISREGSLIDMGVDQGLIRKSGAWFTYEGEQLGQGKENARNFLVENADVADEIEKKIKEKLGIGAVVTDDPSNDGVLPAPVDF
# [14] = target: NAD-dependent protein deacylase sirtuin-5, mitochondrial (Homo sapiens, UniProt Q9NXA8); experiment: sirtuin-5 deacylation blockers, concentration series – biochemical, fluorescence imaging, cherry-pick, set 5, dose response (AID 720591);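 further: desuccinylation of succinyl peptide AMC substrate read as fluorescence after trypsin release; potency of inhibitors that lower fluorescence and may act on trypsin instead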
# Chain of NAD-dependent protein deacylase sirtuin-5, mitochondrial (Q9NXA8 whole entry): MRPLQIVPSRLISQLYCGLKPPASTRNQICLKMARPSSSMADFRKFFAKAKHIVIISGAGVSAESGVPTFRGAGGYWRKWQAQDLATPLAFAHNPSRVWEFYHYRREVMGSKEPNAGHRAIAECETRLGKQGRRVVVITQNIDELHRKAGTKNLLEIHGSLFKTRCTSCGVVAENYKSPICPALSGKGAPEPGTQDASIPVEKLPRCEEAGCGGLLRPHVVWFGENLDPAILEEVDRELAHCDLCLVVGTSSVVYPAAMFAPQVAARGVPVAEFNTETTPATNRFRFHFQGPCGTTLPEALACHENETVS
smiles,measurement,setting,value
CSc1oc(-c2ccco2)nc1S(=O)(=O)c1ccccc1,IC50,Protein Tat,> 100 µM (active)
CC(C)N1CCN(Cc2ccc(Oc3ncccn3)cc2)CC1CCO (stereo not drawn),EC50,[1],> 79.4 µM (not active)
same,EC50,[2],> 79.4 µM (not active)
same,EC50,[3],> 79.4 µM (not active)
CC(C)CC(=O)N1CCN(Cc2cccc(F)c2)CC1,IC50,[4],> 64 µM (inactive)
Cc1ccc(NC(=O)CSc2nnc(-c3ccc(S(=O)(=O)N4CCCC4)cc3)o2)cc1C,EC50,[1],81.2 µM (not active)
same,EC50,[2],> 79.4 µM (not active)
same,EC50,[3],39.8 µM (not active)
O=c1oc2ccccc2cc1-c1cn2ccccc2n1,EC50,BJ [5],17.1 µM (active)
same,EC50,[1],> 79.4 µM (not active)
same,EC50,[2],> 79.4 µM (not active)
same,EC50,BJ [6],2.92 µM (active)
same,AC50,[7],3.64 µM (active)
same,EC50,[8],3.59 µM (active)
same,EC50,[3],> 79.4 µM (not active)
same,AC50,[9],20.3 µM (active)
same,AC50,[10],> 70 µM (inactive)
same,EC50,BJ [11],11 µM (active)
COc1cc(C(c2c(C)[nH][nH]c2=O)c2c(C)[nH][nH]c2=O)ccc1OCc1ccc([N+](=O)[O-])cc1,IC50,[12],> 69.5 µM (inactive)
same,AC50,[13],0.338 µM (active)
same,EC50,Protein RecA,0.178 µM (active)
CCN(CC(=O)Nc1ccccc1C(F)(F)F)C(=O)c1ccc2c(=O)n3c(nc2c1)CCC3,AC50,[14],> 30 µM (inactive)
C[C@H](CO)N1C[C@H](C)[C@H](CN(C)C(=O)Nc2cccc3ccccc23)OCc2cnnn2CCCC1=O,AC50,[14],2.28 µM (active)
